According to patent publication US10028992B2, “Methods of treating muscular dystrophy” (BOARD OF REGENTS OF THE NEVADA SYSTEM OF HIGHER EDUCATION …, priority 2012, dated 2018):
Where two headings read alike, the source gives them in different places.

System: α7 integrin promoter
Test: muscle cell-based assay: α7βgal+/− myoblasts/myotubes, LacZ reporter, β-galactosidase cleavage of FDG
Design: species or system mouse
Conditions: for α7 integrin expression in muscle: screen of DIVERSet library; for Results in a α7+/− β-galactosidase assay, Myotubes, 0.5 uM: compound at 0.5 uM; for Results in a α7+/− β-galactosidase assay, Myotubes, 1 uM: compound at 1 uM; for Results in a α7+/− β-galactosidase assay, Myotubes, 5 uM: compound at 5 uM; for Results in a α7+/− β-galactosidase assay, Myotubes, 10 uM: compound at 10 uM; for Results in a α7+/− β-galactosidase assay, Myotubes, 20 uM: compound at 20 uM; for Results in a α7+/− β-galactosidase assay, Myotubes, 40 uM: compound at 40 uM
In short: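 Fluorescein generated from FDG by β-galactosidase reports α7 integrin promoter activity in differentiated myoblasts from α7+/− LacZ knock-in pups. Screening hits then went to dose-response, western blotting and a myostatin counterscreen.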

[1] = Mus musculus, given as log AC50 (negative values), read-out: Fit LogAC50 (converted)
[2] = curve class number, key not given
[3] = curve fit, activity at zero concentration
[4] = enhancement of α7 integrin expression in muscle cells
[5] = Mus musculus, enhancement of α7 integrin expression in muscle cells, read-out: EC50

Structure (SMILES) | Results in a α7+/− β-galactosidase assay, Myotubes, 0.5 uM | Results in a α7+/− β-galactosidase assay, Myotubes, 1 uM | Results in a α7+/− β-galactosidase assay, Myotubes, 5 uM | Results in a α7+/− β-galactosidase assay, Myotubes, 10 uM | Results in a α7+/− β-galactosidase assay, Myotubes, 20 uM | Results in a α7+/− β-galactosidase assay, Myotubes, 40 uM | further results
C=CCn1c(COc2ccc(Cl)cc2)nnc1SCc1ccc(C#N)cc1 [Compound 220] | – | – | – | – | – | – | EC50 [1]: 11.2 µM; Score (Table 12 compound data): 42; Fit Curve Class [2]: 2.1; Fit HillSlope (curve fit): 3.2975; Fit Zero Activity [%] [3]: 8.1688%
O=C(Cn1nc(-c2ccc(Cl)cc2)ccc1=O)N1CCC2(CC1)OCCO2 [Compound 221] | – | – | – | – | – | – | Fit Curve Class: 2.2; Fit HillSlope: 4.095; Fit Zero Activity [%]: 7%; Score: 41; EC50 (Mus musculus, read-out: Fit LogAC50 (converted)): 11.2 µM
CCOC(=O)/C(C(=O)c1ccccc1)=C(\N)NCCO [Compound 222] | – | – | – | – | – | – | EC50 [1]: 12.6 µM; Score (Table 12 compound data): 41; Fit Curve Class [2]: 2.2; Fit HillSlope (curve fit): 4.095; Fit Zero Activity [%] [3]: 9.8519%
Cn1c(SCC(=O)c2ccccc2)nc2c(c1=O)C1(CCCC1)Cc1ccccc1-2 [Compound ID# 1001, 3-methyl-2-[(2-oxo-2-phenylethyl)thio]-3H-spiro[benzo[h]quinazoline-5,1″-cyclopentan]-4(6H)-one] | – | – | – | – | – | – | Optimal Concentration [4]: 12.5 μm; EC50 (enhancement of α7 integrin expression in muscle cells, read-out: EC50): 3 µM; α7 integrin expression in muscle: increased
CCC(=O)c1ccccc1OCCCN1CCN(C)CC1.Cl [Compound ID# 1002, 1-{2-[3-(4-methyl-1-piperazinyl)propoxy]Phenyl}-1-propanone hydrochloride] | – | – | – | – | – | – | EC50 [5]: 1.5 µM; Optimal Concentration [4]: 12.5 μm; α7 integrin expression in muscle: increased
CCC(=O)c1ccccc1OCCCN1CCCCC1.Cl [Compound ID# 1003, 1 {2-[3-(1-piperidinyl)propoxy}phenyl}-1-propanone hydrochloride] | – | – | – | – | – | – | EC50 [5]: 5 µM; Optimal Concentration [4]: 25 μm; α7 integrin expression in muscle: increased
CC(=O)N(O)CCCCCNC(=O)CCC(=O)N(O)CCCCCNC(=O)CCC(=O)N(O)CCCCCN [Deferoxamine, deferoxamine, reference compound] | – | – | – | – | – | – | EC50 (Mus musculus, Myotube, α7βgal+/− myotubes, dose-response, read-out: EC50): 10 µM; EC50 [5]: 10 µM; Optimal Concentration [4]: 20 μm
O=C(CNC(=O)c1cccc(F)c1)N/N=C/c1cc(Br)ccc1OCc1ccccc1 [drawing 311] | −0.0152 | 0.1201 | 0.07121 | 0.000591 | −0.3123 | −0.2936 | –
Cc1ccccc1-n1c(S)nnc1Cc1cccs1 [drawing 312] | 0.05774 | 0.1436 | −0.03653 | 0.08958 | −0.1182 | −0.01563 | –
CCCCN(CC)Cc1ccc(C/N=C(\S)Nc2ccccc2F)o1 [drawing 313] | 0.05863 | 0.01354 | −0.01977 | 0.01526 | −0.2661 | −0.1331 | –
COc1ccc2c(c1)C(=C(C#N)C#N)C(=O)N2CCc1ccccc1 [drawing 314] | 0.006429 | 0.1052 | 0.04228 | −0.09235 | −0.8051 | −0.734 | –
Cn1cc(CN(CCO)Cc2cccs2)c(-c2ccccc2F)n1 [drawing 315] | 0.06985 | 0.09322 | 0.1949 | 0.1433 | −0.3105 | −0.2586 | –
CCN1C(=O)/C(=C(/C#N)c2nc3ccccc3[nH]2)c2ccccc21 [drawing 316] | −0.1345 | −0.06381 | 0.001992 | 0.06976 | −0.2893 | −0.2363 | –
Cc1ccc2c(c1)/C(=C/c1ccc(F)cc1)C(=O)N2 [drawing 317] | 0.09119 | 0.07633 | 0.0903 | −0.07782 | −0.4653 | −0.4823 | –
O=C1Nc2ccccc2/C1=C\c1ccnc2ccccc12 [drawing 318] | 0.1725 | 0.09552 | 0.4005 | 0.4118 | −0.4266 | −0.342 | –
CCc1c(C)sc(NC(=O)c2ccco2)c1C#N [drawing 319] | −0.09933 | −0.00083 | 0.02008 | 0.1359 | −0.1945 | −0.05014 | –
CCc1c(C)sc(NC(=O)c2ccco2)c1C#N [drawing 320] | 0.1503 | 0.1892 | 0.6497 | −0.03138 | −0.1002 | −0.1982 | –
O=C1Nc2ccccc2/C1=C/c1ccccc1Cl [drawing 321] | 0.1248 | 0.1803 | −0.0494 | −0.1957 | −0.4748 | −0.6409 | –
COc1cccc(CN2CCN(Cc3ccco3)CC2)c1.O=C(O)C(=O)O [drawing 322] | 0.1434 | 0.2622 | 0.003264 | −0.05758 | −0.1598 | −0.2345 | –
CC(C)Oc1ccc(C(=O)/C=C2\C(=O)Nc3ccccc32)cc1 [drawing 323] | 0.1381 | 0.1721 | −0.09555 | −0.3062 | −0.7604 | −0.9215 | –
COc1ccc(NC(=O)C2(N(C(=O)Cn3nnnc3N)c3ccc(OC)cc3)CCCCC2)cc1 [drawing 324] | 0.05381 | 0.1378 | 0.2107 | −0.07457 | −0.3633 | −0.2285 | –
COc1ccc(CCNC(=O)Cn2nnc(C(=O)Nc3ccc(Br)cc3)c2N)cc1OC [drawing 325] | 0.151 | −0.08157 | −0.07294 | −0.05869 | −0.4709 | −0.3389 | –
CC1(C)Cc2c(cnn2-c2cccc(F)c2)C(NC(=O)CCc2cnccn2)C1 (stereo not drawn) [drawing 326] | 0.2586 | 0.1834 | −0.03061 | 0.09511 | −0.2257 | −0.2443 | –
O=C1Nc2ccccc2/C1=C/c1cccnc1 [drawing 327] | −0.03985 | 0.1859 | 0.1467 | 0.08556 | −0.2464 | −0.3705 | –
CNC(=O)CSc1nnc(-c2ccc3c(c2)OCO3)n1C [drawing 328] | 0.08818 | −0.1177 | 0.04868 | 0.07527 | −0.1599 | −0.2763 | –
Cc1ccccc1NC(=O)NCCCN1CCN(C)CC1 [drawing 329] | 0.0927 | 0.04605 | −0.02688 | −0.00108 | 0.01494 | −0.02803 | –
